Source: patent US10258697B2, “Efficient delivery of therapeutic molecules in vitro and in vivo” (Massachusetts Eye and Ear Infirmary, priority 2014, dated 2019)
No end group written: not given here.

Assays:
[1] = test system: cochlear hair cells of Rosa-tdTomato f/f (floxP-tdTomato) mice; experiment: Supercharged GFP-Cre delivery to hair cells of tdTomato reporter mouse cochlea in vivo; settings: for hair cells tdT-labeled: near the injection site (base turn of cochlea)
Experimental: FIGS. 10A and 10B show the in vivo delivery of Cre recombinase to hair cells in the mouse inner ear. FIG. 10A: The scala media (cochlear duct) of P0 floxP-tdTomato mice (n=4) were injected with 0.3 μL of 23 μM (−30)GFP-Cre in 50% RNAiMAX or with RNAiMAX alone (control). After 5 days, tdTomato expression indicative of Cre-mediated recombination was visualized using immunohistology. Red=tdTomato; green=Myo7a; white=Sox2; blue=DAPI. Yellow brackets indicate the outer hair cell (OHC) region. […] Red=tdTomato; green=Esp, white=Sox2; blue=DAPI, Scale bars: 10 μm.
P1 floxP-tdTomato mice (The Jackson Laboratory) were used for (−30)GFP-Cre injection and P2 Atoh1-GFP mice (Dr. J Johnson, Southwestern Medical Center, University of Texas) were used for Cas9:sgRNA injection. Animals were used under protocols approved by the Massachusetts Eye & Ear Infirmary ALCUC committee. Mice were anesthetized by lowering their temperature on ice. Cochleostomies were performed by making an incision behind the ear to expose the cochlea. Glass micropipettes held by a micromanipulator were used to deliver the complex into the scala media, which allows access to inner ear hair cells. For delivery of (−30)GFP-Cre, 3 μL of 45 μM protein was mixed with 3 μL of either RNAiMAX or Lipofectamine 2000 and incubated at room temperature for 30 minutes prior to injection. Four mice were injected per treatment group. […]
5-10 days after injection, the mice were sacrificed and cochlea were harvested by standard protocols. […] To quantify the number of tdTomato positive cells after (−30)GFP-Cre or GFP negative cells after Cas9:sgRNA delivery, the total number of outer hair cells were counted in a region spanning 200 μm around the site of injection in the base turn of the cochlea. The efficiency of (−30)GFP-Cre-induced recombination or Cas9:sgRNA-induced genome modification was calculated as the percentage of outer hair cells that expressed tdTomato or that lost GFP expression. […]

mouse retina = settings: +36 GFP-Cre alone; cited from earlier work
[2] = test system: cochlear inner hair cells, outer hair cells and supporting cells; assay type: in vivo
Experimental: 0.4 μL of 50 μM+36 GFP-Cre or aurein 1.2-+36 GFP-Cre were injected into the scala media. […] Inner hair cells (IHC), outer hair cells (OHC) and supporting cells in the sensory epithelium (SE) were imaged for the presence of tdTomato, which is only expressed following Cre-mediated recombination. Hair cells were labeled with antibodies against the hair-cell marker Myo7a.
P1-2 Gt(ROSA)26Sor^tm14(CAG-tdTomato)Hze mice were used for aurein 1.2-+36-GFP-Cre and +36-GFP-Cre injection. The Rosa26-tdTomato mice were from the Jackson Laboratory. Animals were used under protocols approved by the Massachusetts Eye & Ear Infirmary IACUC committee. Mice were anesthetized by hypothermia on ice. Cochleostomies were performed by making an incision behind the ear to expose the cochlea. Glass micropipettes held by a micromanipulator were used to deliver the complex into the scala media, which allows access to inner ear hair cells. The total delivery volume for every injection was 0.4 μL per cochlea and the release was controlled by a micromanipulator at the speed of 69 nL/min.
To quantify the number of tdTomato positive cells after aurein 1.2-+36-GFP-Cre and +36-GFP-Cre, we counted the total number of inner and outer hair cells in a region spanning 100 μm in the apex, middle, and base turn of the cochlea.
Both the hair cells (Myo7a+) and supporting cells (Myo7a−) were evaluated for td Tomato signal.

[3] = test system: inner ear cell types (IHC, OHC, SC) of Rosa-tdT mouse; experiment: (+36)-GFP-aurein-Cre injection into P3 Rosa-tdT mouse inner ear by cochleostomy; assay type: in vivo; settings: 50 μM
Experimental: FIGS. 11A-11E show the high efficiency of protein delivery mediated by aurein in the inner ear in vivo. […] FIG. 11E: In Opti-MEM injected control mice no tdT labeling was detected in any inner ear cells. Scale bars: 10 μm.
It was next tested whether Aurein, an antimicrobial peptide, in combination with s-GFP, can serve as an effective carrier to deliver functional proteins into mouse inner ear cell types with high efficiency. (+36)-GFP-aurein-Cre was injected with different concentrations into P3 Rosa-tdT mouse inner ear by cochleostomy in vivo. The tissues were harvested 5 days later for immunolabeling to identify tdT^+ inner ear cell types. […] At 22.5 μM, 58% of OHC and 75% of IHC, as well as 8% of SC were tdT^+. At the highest 50 μM, 96% of OHC, 88% of IHC and 19% of SC were tdT^+. Some spiral ganglion neurons were also tdT at 22.5 and 50 μM (FIGS. 11A-11E and FIG. 12).

BSR.LNL.tdTomato cells [4] = experiment: ATP-dependent cell viability assay (CELLTITER-GLO); settings: 1 μM, 48 h after treatment
Experimental: (§1) FIGS. 15A, 15B are graphs showing the efficacy and toxicity of recombinant expression fusions of aurein 1.2 (“E”) and citropin 1.3 (“U”). […] The percentage of tdTomato positive cells was determined by flow cytometry. Protein fusions were delivered at 125 nM, 250 nM, 500 nM, and 1 μM. […] Protein fusions were delivered at 125 nM, 250 nM, 500 nM, and 1 μM. […] Cells were treated with 250 nM protein for 4 h in serum-free media. Cells were washed and supplanted with full DMEM and incubated for 48 h. Error bars represent the standard deviation of three independent biological replicates.
(§2) Uptake and delivery assays for Cre fusion proteins were performed as previously described (Cronican, J. J.; et al. ACS Chemical Biology 2010, 5, 747). Briefly, proteins were diluted in serum-free DMEM and incubated on the cells in 48-well plates for 4 h at 37° C. Following incubation, the cells were washed three times with PBS+20 U/mL heparin. The cells were incubated a further 48 h in serum-containing media prior to trypsinization and analysis by flow cytometry. […] Toxicity for alanine scan mutational analysis was determined with LIVE/DEAD fixable far-red dead cell stain (Life Technologies) with 635 nm laser and 670/30 nm filter.
Next, the toxicity of each fusion protein was evaluated at a range of concentrations (125 nM to 1 μM) using an ATP-dependent cell viability assay at 48 h after treatment.

BSR.LNL.tdTomato cells [5] = experiment: Primary screen for cytosolic delivery of Cre recombinase (fluorescence image analysis); assay type: cell-based, hamster; settings: for level of recombination of sortase-conjugated peptide-(+36 GFP)-Cre: 250 nM, primary screen
Experimental: Initial screen of 20 peptide-(+36 GFP)-Cre conjugated proteins. Cytosolic Cre delivery results in recombination and tdTomato expression. The percentage of tdTomato positive cells was determined by fluorescence image analysis. […] Cells were washed and supplanted with full DMEM and incubated for 48 h. Error bars represent the standard deviation of three independent biological replicates.
BSR.LNL.tdTomato cells were plated at 10,000 cells per well in black 384-well plates (Aurora Biotechnologies). […] Following incubation, the cells were washed three times with PBS+20 U/mL heparin. The cells were incubated a further 48 h in serum-containing media. Cells were fixed in 3% paraformaldehyde and stained with Hoescht 33342 nuclear dye. […] Images were exposed for 10 ms in the DAPI channel (Hoechst) and 500 ms in the dsRed channel (tdTomato). Image analysis was performed using the cell-scoring module of MetaXpress software (Molecular Devices). All nuclei were detected with a minimum width of 1 pixel, maximum width of 3 pixels, and an intensity of 200 gray levels above background. Positive cells were evaluated for uniform signal in the dsRed channel (minimum width of 5 pixels, maximum width of 30 pixels, intensity >200 gray levels above background, 10 μm minimum stained area). In total, nine images were captured and analyzed per well, and 16 wells were treated with the same fusion protein. The primary screen was completed in biological triplicate.
Because Cre recombinase must enter the cell, escape endosomes, enter the nucleus, and catalyze recombination to generate tdTomato fluorescence, this assay reflects the availability of active, non-endosomal recombinase enzyme that reaches the nucleus.
The reporter BSR.LNL.tdTomato cells were incubated with 250 nM of each peptide-(+36 GFP)-Cre protein in serum-free media.

[6] = test system: glucocorticoid receptor (GR-mCherry) in HeLa cells; experiment: GR-mCherry translocation assay; assay type: cell-based; settings: 1 μM for 30 min, HeLa cells expressing GR-mCherry
Experimental: One day prior to transfection 10,000 HeLa cells in 200 μL of DMEM (10% FBS, 1× Pen-Strep) were plated into single wells of a 96-well MATRICAL glass bottom microplate (MGB096-1-2-LG-L) and allowed to adhere overnight. The following day, cells were transfected with GRmCherry using LIPOFECTAMINE® 2000 technologies. Following transfection, cells were allowed to recover overnight in DMEM (+10% FBS). The following day, cells were treated with dexamethasone (Dex) or 1 μM Dex-protein conjugate in the presence or absence of inhibitor diluted into DMEM (without phenol red, +300 nM Hoescht33342). After 30 min, cells were washed twice with 200 μL of HEPES-Krebs-Ringer's (HKR) buffer (140 mM NaCl, 2 mM KCl, 1 mM CaCl2, 1 mM MgCl2, and 10 mM HEPES at pH 7.4), after which 100 μL of HKR buffer was overlaid onto the cells and images were acquired on a Zeiss Axiovert 200M epifluorescence microscope outfitted with Ziess AxiocammRM camera and an EXFO-Excite series 120 Hg arc lamp. The translocation ratio (the ratio of median […] intensity in the nuclear and surrounding regions) for individual cells was measured using CELLPROFILER® as described 36. […]
Although endosomal escape is widely considered to be the major bottleneck of cationic protein delivery (Sahay, G.; et al. Nature Biotechnology 2013, 31, 653), few assays quantify the ability of proteins to escape endosomes on a single-cell basis.

BSR.LNL.tdTomato cells [7] = experiment: Cre delivery assay with expressed fusion proteins (flow cytometry); assay type: cell-based, hamster; settings: 250 nM, compared with unmutated aurein 1.2-+36 GFP-Cre
Experimental: as §1
as §2, with “cytometry. All flow cytometry were carried out on a BD Fortessa flow cytometer (Becton-Dickinson) using 530/30 nm and 610/20 nm filter sets.” for “cytometry.”

BSR.LNL.tdTomato cells [8] = experiment: Toxicity of aurein 1.2 variants fused to +36 GFP-Cre; assay type: cell-based, hamster; settings: 250 nM
Source text: FIGS. 16A, 16B are graphs showing the activity and cytotoxicity of aurein 1.2 variants fused to +36 GFP-Cre (FIG. 16A). […] (FIG. 16B) Toxicity as determined by CELLTITERGLO (Promega) assay.

(−30)GFP-Cre: negatively supercharged GFP fused to Cre recombinase, SEQ ID NO: 4
hair cells tdT-labeled [1]: ~30%
stereocilia of tdTomato-positive outer hair cells ([1]; ten days after delivery, 23 μM in 50% RNAiMAX, P0 floxP-tdTomato mice): intact espin (Esp)-expressing stereocilia

+36 GFP-Cre: superpositively charged GFP fused to Cre recombinase, SEQ ID NO: 1
recombination in mouse retina (mouse retina): modest levels of recombination
hair cells tdT-labeled [1]: ~30%
Cre-mediated recombination in inner hair cells (IHC) ([2]; apex, 50 μM): 4.4%
tdT labeling of cochlear cell types [3]: very few IHC and HC were labeled with tdT
cell viability (BSR.LNL.tdTomato cells [4]): 85%
recombined cells with chloroquine (positive control) (BSR.LNL.tdTomato cells [5]; 250 nM protein incubated with 100 μM chloroquine): 48%
cells expressing tdTomato (recombined cells) (BSR.LNL.tdTomato cells [5]; 250 nM protein, 4 h serum-free media, then 48 h): 4.5%

Arg8^Dex: canonical cell permeable peptide (SEQ ID NO: 102), dexamethasone-labeled positive control (RRRRRRRR; also: dexamethasone label)
nuclear-to-cytoplasm translocation ratio (TR) [6]: 1.63

GLFDIIKKIAEAF [S12A, aurein 1.2 variant expressed as fusion with +36 GFP-Cre]
recombination efficiency of aurein 1.2 variants fused to +36 GFP-Cre (BSR.LNL.tdTomato cells [7]): potentially improved overall recombination efficiency
toxicity of aurein 1.2 variants (BSR.LNL.tdTomato cells [8]): increased toxicity

GLFDIIKKIAESF [aurein 1.2]
potency of Cre delivery into cochlear hair cells when fused with aurein 1.2 vs absence of the peptide ([2]; live mice): > 20 fold
level of recombination of sortase-conjugated peptide-(+36 GFP)-Cre (BSR.LNL.tdTomato cells [5]): highest level of recombination

GLFDIIKKVASVIGGL (listed as Litoria citropa) [citropin 1.3]
level of recombination of sortase-conjugated peptide-(+36 GFP)-Cre (BSR.LNL.tdTomato cells [5]): moderate level of recombination

GLFDIIKRIAESF [K8R, aurein 1.2 variant expressed as fusion with +36 GFP-Cre]
recombination efficiency of aurein 1.2 variants fused to +36 GFP-Cre (BSR.LNL.tdTomato cells [7]): potentially improved overall recombination efficiency
toxicity of aurein 1.2 variants (BSR.LNL.tdTomato cells [8]): increased toxicity
